Usually Ki stands for a dissociation constant, usually derived from enzyme kinetics or from competition with a known ligand.

Molecules are shown by their SMILES.

Assay [1] has as its target T1, hA1AR (Homo sapiens, UniProt P30542).
T1 sequence (P30542 1-326): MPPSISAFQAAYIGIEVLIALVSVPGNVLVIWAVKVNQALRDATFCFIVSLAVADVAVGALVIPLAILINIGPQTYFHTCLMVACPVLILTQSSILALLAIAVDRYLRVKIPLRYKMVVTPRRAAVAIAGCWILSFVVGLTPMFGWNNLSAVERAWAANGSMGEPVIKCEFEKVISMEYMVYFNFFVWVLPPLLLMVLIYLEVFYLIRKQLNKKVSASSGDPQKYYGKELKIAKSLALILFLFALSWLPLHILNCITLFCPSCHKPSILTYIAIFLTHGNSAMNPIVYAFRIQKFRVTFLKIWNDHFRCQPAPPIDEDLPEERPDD
In kind it is cell-based. Particulars: compared to standard full agonist CPA / NECA.

Another assay concerns the target T2, hA3AR (Homo sapiens, UniProt P0DMS8).
T2 sequence (P0DMS8 1-318): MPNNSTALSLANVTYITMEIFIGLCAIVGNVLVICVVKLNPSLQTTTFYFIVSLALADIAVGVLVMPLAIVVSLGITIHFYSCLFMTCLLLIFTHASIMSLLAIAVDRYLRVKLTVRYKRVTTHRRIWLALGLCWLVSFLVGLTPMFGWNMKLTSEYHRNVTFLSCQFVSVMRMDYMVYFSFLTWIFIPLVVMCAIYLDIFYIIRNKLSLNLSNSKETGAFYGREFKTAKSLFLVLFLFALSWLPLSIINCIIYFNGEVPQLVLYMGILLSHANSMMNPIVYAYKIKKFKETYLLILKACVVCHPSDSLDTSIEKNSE
Particulars: read-out: Affinity Ki, A3; CHO cells expressing hA3AR; ref [6], [7], and [12]; cited from earlier work.

The target in assay [2] is T1, hA1AR. To be noted: read-out: Affinity Ki, A1; CHO cells expressing hA1AR; ref [6], [7], and [12]; cited from earlier work.

`CCNC(=O)[C@H]1O[C@@H](n2cnc3c(N)ncnc32)[C@H](O)[C@@H]1O` [NECA, 5′-N-ethylcarboxamidoadenosine]: the “Agonist character at A1AR in cyclic AMP assay” value on hA1AR [1] was “full agonist”.

`O[C@@H]1[C@H](O)[C@H]2C[C@@H]2[C@H]1n1cnc2c(NCc3cccc(I)c3)nc(Cl)nc21` [Compound 5, (1′S,2′R,3′S,4′R,5′S)-4′-[2-chloro-6-(3-iodobenzylamino)-purine]-2′,3′-O-dihydroxybicyclo-[3.1.0]hexane]: the inhibitory constant (Ki) at hA3AR was 1.44 ± 0.6 nM.

Consider `CNC(=O)[C@@]12C[C@@H]1[C@@H](n1cnc3c(NCc4cccc(Cl)c4)nc(Cl)nc31)[C@H](O)[C@@H]2O` [Compound 1, (1′S,2′R,3′S,4′R,5′S)-4′-{2-chloro-6-[(3-chlorophenylmethyl)amino]purin-9-yl}-1-(methylaminocarbonyl)bicyclo[3.1.0]hexane-2,3-diol], for which the Ki on hA1AR [2] was 260 ± 60 nM.

In the case of `CNC(=O)[C@@]12C[C@@H]1[C@@H](n1cnc3c(NC4CCCC4)nc(Cl)nc31)[C@H](O)[C@@H]2O` [Compound 2, (1′S,2′R,3′S,4′R,5′S)-4-(2-chloro-6-(cyclopentylamino)-9H-purin-9-yl)-2,3-dihydroxy-N-methylbicyclo[3.1.0]hexane-1-carboxamide], the Ki on hA1AR [2] was 18.3 ± 6.3 nM; at hA3AR, 13.1 ± 5.1 nM.

Consider `O[C@@H]1[C@H](O)[C@@H]2C[C@@H]2[C@H]1n1cnc2c(NC(C3CC3)C3CC3)nc(Cl)nc21` [Compound 21], for which the “Agonist character at A1AR in cyclic AMP assay” value on hA1AR [1] is “full agonism”.

Values taken from PMC3156476 (ACS medicinal chemistry letters, 2011).
